Assay [1] concerns Cavia porcellus. Nature of the assay: Compound was evaluated in vivo for its ability to inhibit methacholine induced bronchospasm in male guinea pig. It counts as functional.
Assay [2] is filed under the species Rattus norvegicus. In words: Compound was evaluated for its hypotensive activity (decrease in blood pressure) in normotensive rats. The assay is classed as functional.
The species named for assay [3] is Cavia porcellus. Nature of the assay: Concentration required to inhibit spontaneous tone of guinea pig isolated tracheal spirals. It counts as functional. The settings on record: Trachea.
Assay [4] deals with Rattus norvegicus. Nature of the assay: Changes in systolic blood pressure was measured at intervals of 1 hr for 4 hr after oral administration of 0.1 mg/kg in rats. It counts as functional, Artery.
The species named for assay [5] is Rattus norvegicus. In words: Concentration required to inhibit NA-induced contractions in rat portal vein by 50%. The assay is classed as functional.
Assay [6] is filed under the species Cavia porcellus. In words: Compound was evaluated for its hypotensive activity (decrease in blood pressure) in male guinea pigs. It counts as functional.
The species named for assay [7] is Rattus norvegicus. In words: Percent inhibition of NA-induced contractions in rat portal vein at 10 uM was evaluated. It counts as functional. As to conditions: for inhibition at 10 µM: Rattus norvegicus.

Bounds are passed on as bounds.

One may read the ED50 as the dose at which the effect has come halfway, by size or by number of responders. Lower therefore signals an effect at a small dose. One may read the IC50 as the point on the concentration scale where inhibition reaches its midpoint. The low end stands for greater potency in that assay, the high end for weaker potency in that assay. Usually inhibition stands for the change of the read-out against control, counted positive when it falls. Lower therefore signals a weak effect. What is called Inhibition is the drop in the measured response relative to a control, in per cent. Lower therefore signals little suppression.

`CC1(C)C=C(c2cccc[n+]2[O-])c2cc(Cl)c(Cl)cc2C1=O` gave an ED50 in the assay on Cavia porcellus [1] of 0.0912 mg/kg. The ED25 stood at 0.079 mg/kg in the assay filed under Rattus norvegicus [2] and 0.0933 mg/kg in the assay filed under Cavia porcellus [6]. Also, the IC50 was determined as 210 nM in the assay listed under Cavia porcellus [3] and 470 nM in the assay filed under Rattus norvegicus [5]. Moreover, the “Max fall in blood pressure” value with Rattus norvegicus [4] amounted to 74 mmHg.

`CC1(C)C=C(c2cccc[n+]2[O-])c2cc(C(F)(F)C(F)(F)F)ccc2C1=O`: the ED25 in the assay with Cavia porcellus [1] was determined as 0.036 mg/kg; in the assay filed under Rattus norvegicus [2], 0.776 mg/kg; in the assay listed under Cavia porcellus [6], 0.0876 mg/kg. The IC50 came to 110 nM in the assay listed under Cavia porcellus [3] and 590 nM in the assay filed under Rattus norvegicus [5].

Consider `CC1(C)C=C(c2ccccn2)c2cc(Br)ccc2C1=O`, for which the IC50 is more than 10000 nM in the assay listed under Cavia porcellus [3] and 48000 nM in the assay listed under Rattus norvegicus [5].

Compound `CC1(C)CC(O)(c2cccc[n+]2[O-])c2cc(C#N)ccc2C1=O` (stereo not drawn) returned an inhibition at 10 µM in the assay listed under Rattus norvegicus [7] of 30%. Besides, the IC50 in the assay listed under Cavia porcellus [3] turned out to be 7300 nM.

In the assay with Cavia porcellus [1], `CC1(C)C=C(c2cccc[n+]2[O-])c2cc(Br)ccc2C1=O` came in with an ED50 of 0.148 mg/kg. Moreover, the figures for the ED25 in the assay listed under Rattus norvegicus [2] and in the assay filed under Cavia porcellus [6] were 0.0877 mg/kg and 0.0891 mg/kg, respectively. For the same compound, the IC50 in the assay listed under Cavia porcellus [3] amounted to 230 nM; in the assay filed under Rattus norvegicus [5] it was 810 nM. The “Max fall in blood pressure” value in the assay with Rattus norvegicus [4] is recorded as 53 mmHg.

Consider `COC1(c2cccc[n+]2[O-])CC(C)(C)C(=O)c2ccc(Br)cc21` (stereo not drawn), for which the inhibition at 10 µM in the assay filed under Rattus norvegicus [7] was found to be 20%. Besides, the IC50 in the assay listed under Cavia porcellus [3] is more than 10000 nM.

As to `CC1(C)CC(c2cccc[n+]2[O-])c2cc(C#N)ccc2C1=O` (stereo not drawn), the IC50 was 2500 nM in the assay listed under Cavia porcellus [3] and 160 nM in the assay listed under Rattus norvegicus [5]. Moreover, the “Max fall in blood pressure” value in the assay with Rattus norvegicus [4] was determined as 99.5 mmHg.

`CC1(C)C(=O)c2ccc(Br)cc2C2(c3cccc[n+]3[O-])OC12` (stereo not drawn) registered an Inhibition in the assay filed under Rattus norvegicus [7] of 12%. For the same compound, in the assay listed under Cavia porcellus [3], the IC50 is 1700 nM.

On to `CC1(C)C=C(c2cccc[n+]2[O-])c2cc(C#N)ccc2C1=O`, for which the figures for the ED25 in the assay on Cavia porcellus [1], in the assay filed under Rattus norvegicus [2] and in the assay filed under Cavia porcellus [6] were 0.0303 mg/kg, 0.079 mg/kg and 0.0647 mg/kg, respectively. The values for the IC50 in the assay listed under Cavia porcellus [3] and in the assay filed under Rattus norvegicus [5] were 200 nM and 900 nM, respectively.

Consider `CC1(C)Oc2ccc(C#N)cc2[C@H](N2CCCC2=O)[C@H]1O` (single isomer, unassigned) [(-)-CROMAKALIM], for which the ED25 in the assay with Cavia porcellus [1] was 0.0162 mg/kg; in the assay listed under Rattus norvegicus [2] it was 0.0215 mg/kg; in the assay filed under Cavia porcellus [6] it was 0.0075 mg/kg. For the same compound, the results for the IC50 in the assay filed under Cavia porcellus [3] and in the assay listed under Rattus norvegicus [5] were 280 nM and 100 nM, respectively.

Source of the values: ChEMBL document CHEMBL1149931, “4-(2-pyridyl)-2,2-dimethylnaphthalen-1-ones as new potassium channel activators with increased airways selectivity” (Bioorg Med Chem Lett, 1995).
